Patent US20020192274A1, “pH sensitive liposomal drug delivery” (priority 2001, published 2002)

Key:
TNF-α [1] = test: LPS-induced TNF-α secretion by liver slices after in vivo ASO administration (ELISA); set-up: species or system rat; settings: for inhibition of LPS-induced TNF-α production in liver slices: vs empty liposomes
Description: FIG. 4. In vivo efficacy of ASO TJU-2755 (SEQ. ID. NO: 1) against TNF-α in the liver: Effect of duration post-injection. Rats are intravenously injected with pH-sensitive liposomes encapsulated with TJU-2755 (1.5-1.75 mg/Kg body wt). At different times (24, 48 and 72 h) after ASO administration, LPS (50 μg/Kg body weight for 90 minutes) is administered intravenously (i.v.) and the animals are sacrificed 90 min after this challenge. Liver is excised, slices prepared and incubated for 2 h (infra). The amount of TNF-α released into the medium is measured by ELISA. The TNF-α values (bars) from the ASO-treated animals are normalized to control values (control=100) obtained from body weight-matched rats treated similarly except that they are injected with “empty” liposomes. Values indicated are means ±S.E. of (n) determinations. Number of animals, 24 h, n=3; 48 h, n=4, 72 h, n=3. * p<0.05 (vs Control).
FIG. 5. In vivo efficacy of ASO TJU-2755 (SEQ. ID. NO: 1) against TNF-α in the liver: Effect of multiple injections. Rats are injected with either one or two daily doses of ASO (1.5-1.75 mg/Kg body wt) encapsulated liposomes. […] The amount of TNF-α produced by liver slices is determined as described in legend to FIG. 4 (supra). Bars indicate the amount of TNF-α produced by ASO-treated animals, expressed as percent of controls injected with “empty” liposomes and are the means ±S.E. of n=4 for single dose and n=7 for two doses. *p<0.05, **p<0.01 vs control). The absolute values (Mean) of TNF-α for control and TNF-2755-treated livers (for two daily doses) were 17,748 and 7,500 pg/g liver, respectively.
Following the in vivo administration of LPS, the production of TNF-α in the liver is assessed by measuring the amount of TNF-α secreted by liver slices. Liver slices are prepared and incubated in culture medium according to the procedure described by Videla and Israel (Videla, L., Israel, Y., Biochem J. 118: 275-281, 1970) with modifications, which include the addition of insulin and fetal calf serum to the culture medium. Briefly, liver slices of uniform thickness (10×4×0.4 mm) are prepared from the mid lobe and initially rinsed in ice-cold William's E medium. The slices (2 slices per dish) are transferred to culture dishes (35 mm) containing 2 ml of fresh medium (90% William's E, 10% fetal calf serum and 2 units of insulin/100 ml) and incubated at 37° C. for 2 h. The amount of TNF-α released into the medium is measured (infra).
(§1) ELISA is conducted by using Cytoscreen KRC3012 kits (Biosource, Camarillo, Calif.) according to the manufacturer's specifications. Supernatants containing high TNF-α levels are diluted prior to the assay to assure assay results within the standard curve.
(§2) Rats are injected intravenously with two daily doses (1.5 mg/Kg body wt.) of ASO TJU-2755 (SEQ. ID. NO: 1) encapsulated in pH-stable liposomes and challenged with LPS (50 μg/Kg body wt.) at 48 h post injection. Animals are sacrificed 90 minutes post-LPS. The amount of TNF-α in plasma, as well as that secreted by liver slices, is determined exactly as described for pH-sensitive liposomes (supra) and legends to FIG. 4 and FIG. 5. Body-weight matched rats injected with two doses of “empty” liposomes and challenged similarly with LPS constituted the control group. All TNF-α values are normalized to the corresponding control groups (=100). Values are expressed as mean ±S.E of (n) determinations.

TNF-α [2] = test: Plasma TNF-α after LPS challenge following in vivo ASO administration (ELISA); set-up: species or system rat
Description: FIG. 6. […] Rats are injected with either one (n=3), two (n=8) or three (n=1) daily doses of TJU-2755 (SEQ. ID. NO: 1) and administered LPS (50 μg/Kg body wt.) at 48 h after the last injection of the antisense formulation as described in legend to FIG. 5. […] Plasma TNF-α is determined by ELISA. Bars indicate values from ASO-treated animals expressed as percent of corresponding controls (animals dosed with “empty liposomes”) and are the means ±S.E of (n) determinations. ***p<0.001 between rats injected two daily doses of ASO and controls. The absolute (Mean) values of TNF-α for control and TJU-2755 (SEQ. ID. NO: 1)-treated plasma samples (for two daily doses) were 34,375 and 9,731 (pg/ml plasma) respectively.
as §1, §2

TNF-α mRNA = test: Tissue levels of TNF-α mRNA by Northern hybridization; assay type: in vivo, rat; settings: pH-sensitive liposomes, two daily doses 1.5 mg/Kg, LPS 48 h post ASO, normalized to GAPDH, vs empty liposomes
Description: FIG. 8. Effect of ASO TJU-2755 (SEQ. ID. NO: 1) in vivo on TNF-α mRNA. Rats are injected with two daily doses (1.5 mg/Kg body wt.) of ASO and injected with LPS (50 μg/Kg body wt.) 48 h post ASO administration as described in legend to FIG. 5. Liver (n=5) and spleen (n=4) are processed for the extraction of mRNA fractions. Steady-state levels of TNF-α mRNA are determined by Northern hybridization and normalized to the levels of GAPDH mRNA. Bars indicate mRNA (Means ±S.E) of (n) values from ASO-treated samples, expressed as percent of control values derived from rats treated with “empty” liposomes. *p<0.05, **p<0.01 (Vs control).
Liver and spleen samples (≈100 mg) are homogenized in 3 volumes of cold TRI Reagent (Molecular Research Center, Inc.). […] The intactness of total RNA is measured by agarose (1%) gel electrophoresis by visualizing the intactness of ribosomal RNA (28S, 18S). […] The purity of the isolated mRNA is monitored by analyzing the absorption ratios of 260 to 280 (nm), which always ranged from 1.8-2.0.
Samples of mRNA are run on 1% agarose gel electrophoresis, vacuum transferred (BIORAD Model 785 Vacuum Blotter) onto a nitrocellulose membrane (Amersham), and crosslinked (Statagene UV Stratalinker 2400). […] The autoradiograms are quantitated using an ultrascan laser densitometer. […]

TNF-α [3] = settings: primary Kupffer cells ex vivo; cited from earlier work
[4] = pH-stable liposomes, two daily doses 1.5 mg/Kg i.v., LPS at 48 h, mean ± S.E

Question: For “TJU-2755: phosphorothioate 21-mer antisense oligonucleotide 5′-TGATCCACTCCCCCCTCCACT-3′, complementary to the 3′-untranslated region of rat TNF-α mRNA (all phosphorothioate, sugars by position and methylation of C not given here)”, which “inhibitory effect on LPS-induced TNF-α production” value (TNF-α [1]; ASO delivered with pH-stable liposomes (liver and plasma, Table 1)) is on record?
Answer: Its value is “no inhibitory effect”.

Question: What about the “inhibition of LPS-induced TNF-α production in liver slices” value (TNF-α [1]; pH-sensitive liposomes, single i.v. dose, LPS 48 h post injection) of the same substance?
Answer: The value was roughly 30%.

Question: What about the “inhibition of LPS-induced TNF-α production in liver slices” value (TNF-α [1]; pH-sensitive liposomes, two daily doses, LPS 48 h after last injection) of the same substance?
Answer: The value was 50%.

Question: What about the “TNF-α produced by liver slices, absolute mean” value (TNF-α [1]; pH-sensitive liposomes, two daily doses, control 17,748) of the same substance?
Answer: The value was 7,500 pg/g liver.

Question: And the “TNF-α (%) liver, normalized to control (=100)” value (TNF-α [1]; [4])?
Answer: Its value is 103 ± 23%.

Question: What about the “reduction in plasma TNF-α levels” value (TNF-α [2]; pH-sensitive liposomes, 2 doses, LPS 48 h after last injection, vs empty liposomes) of the same substance?
Answer: The value was 68%.

Question: What about the “plasma TNF-α, absolute mean” value (TNF-α [2]; pH-sensitive liposomes, two daily doses, control 34,375) of the same substance?
Answer: Its value is 9,731 pg/ml plasma.

Question: And the “TNF-α (%) plasma, normalized to control (=100)” value (TNF-α [2]; [4])?
Answer: Its value is 93 ± 28%.

Question: And the “reduction in TNF-α mRNA levels, spleen” value (TNF-α mRNA)?
Answer: The value was 36.5%.

Question: What about the “reduction in steady-state levels of TNF-α mRNA, liver” value (TNF-α mRNA) of the same substance?
Answer: Its value is 35%.

Question: And the “inhibition of LPS-stimulated TNF-α production” value (TNF-α [3])?
Answer: Its value is greater than 90%.
